Reference: ChEMBL document CHEMBL5465560, “Selectivity Literature for EUbOPEN Chemogenomic Library” (2024)

How the values were obtained:
[1] = target: T1, Activin receptor type-1 (Homo sapiens) (UniProt Q04771); assay: Selectivity interaction (KinomeScan (DiscoverX)) EUB0000092b ACVR1; conditions: at 10 µM
T1 sequence (whole entry): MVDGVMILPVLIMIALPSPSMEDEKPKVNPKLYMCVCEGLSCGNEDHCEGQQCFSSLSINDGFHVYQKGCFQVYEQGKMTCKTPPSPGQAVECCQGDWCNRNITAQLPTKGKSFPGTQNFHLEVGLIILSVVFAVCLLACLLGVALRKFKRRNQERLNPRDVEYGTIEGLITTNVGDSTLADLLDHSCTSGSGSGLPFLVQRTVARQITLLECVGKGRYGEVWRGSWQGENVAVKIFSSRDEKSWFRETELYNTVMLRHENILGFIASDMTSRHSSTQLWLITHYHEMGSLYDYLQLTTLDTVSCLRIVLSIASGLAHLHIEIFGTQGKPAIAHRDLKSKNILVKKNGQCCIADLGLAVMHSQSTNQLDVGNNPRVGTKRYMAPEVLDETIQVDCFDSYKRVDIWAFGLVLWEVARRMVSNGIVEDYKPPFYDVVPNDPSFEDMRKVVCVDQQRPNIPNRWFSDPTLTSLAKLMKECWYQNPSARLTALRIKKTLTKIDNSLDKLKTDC

[2] = target: LIM domain kinase 2 (Homo sapiens) (UniProt P53671); conditions: at 10 µM
Chain of LIM domain kinase 2 (Homo sapiens) (P53671 whole entry, looked up, the tested form may be a part): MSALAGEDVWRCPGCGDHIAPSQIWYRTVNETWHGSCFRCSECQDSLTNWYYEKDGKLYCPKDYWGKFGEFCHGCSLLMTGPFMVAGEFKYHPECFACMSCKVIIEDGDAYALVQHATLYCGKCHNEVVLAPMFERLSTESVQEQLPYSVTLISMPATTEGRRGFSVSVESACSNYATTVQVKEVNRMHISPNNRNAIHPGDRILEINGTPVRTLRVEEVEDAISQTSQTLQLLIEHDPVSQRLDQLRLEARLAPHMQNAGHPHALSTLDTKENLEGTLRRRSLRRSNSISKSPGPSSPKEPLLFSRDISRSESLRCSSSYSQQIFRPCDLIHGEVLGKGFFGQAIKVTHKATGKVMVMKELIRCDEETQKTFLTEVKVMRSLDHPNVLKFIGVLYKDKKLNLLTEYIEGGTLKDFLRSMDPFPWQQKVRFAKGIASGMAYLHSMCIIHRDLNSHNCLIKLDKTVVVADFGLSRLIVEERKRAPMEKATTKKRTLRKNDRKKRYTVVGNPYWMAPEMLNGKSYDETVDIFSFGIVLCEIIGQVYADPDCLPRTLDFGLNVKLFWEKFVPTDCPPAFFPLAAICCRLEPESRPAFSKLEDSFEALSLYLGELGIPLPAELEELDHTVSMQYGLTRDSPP

[3] = target: T2, Beta-adrenergic receptor kinase 1 (Homo sapiens) (UniProt P25098); assay: Selectivity interaction (Kinase panel (Z-LYTE Assay)) EUB0001632a ADRBK1; conditions: at 10 µM
T2 sequence (whole entry): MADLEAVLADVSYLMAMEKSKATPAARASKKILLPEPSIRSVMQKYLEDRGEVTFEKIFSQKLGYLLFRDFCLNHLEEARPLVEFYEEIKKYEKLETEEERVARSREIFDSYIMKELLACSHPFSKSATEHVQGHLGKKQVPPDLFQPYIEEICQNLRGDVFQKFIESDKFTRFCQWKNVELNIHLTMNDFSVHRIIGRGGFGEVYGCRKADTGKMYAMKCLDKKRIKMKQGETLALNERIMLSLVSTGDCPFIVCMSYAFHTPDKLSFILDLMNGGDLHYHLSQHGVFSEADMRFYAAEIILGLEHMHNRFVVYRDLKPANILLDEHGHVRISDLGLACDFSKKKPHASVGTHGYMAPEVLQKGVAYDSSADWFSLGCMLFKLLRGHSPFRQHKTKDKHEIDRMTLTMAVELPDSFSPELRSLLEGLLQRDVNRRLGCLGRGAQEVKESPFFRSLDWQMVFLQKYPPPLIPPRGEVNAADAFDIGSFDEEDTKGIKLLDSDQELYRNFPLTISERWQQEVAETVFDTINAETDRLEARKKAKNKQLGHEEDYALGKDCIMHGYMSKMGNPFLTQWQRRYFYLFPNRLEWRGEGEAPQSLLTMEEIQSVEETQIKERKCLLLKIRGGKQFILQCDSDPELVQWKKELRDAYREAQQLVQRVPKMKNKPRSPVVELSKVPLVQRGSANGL

[4] = target: T3, Serine/threonine-protein kinase LATS2 (Homo sapiens) (UniProt Q9NRM7); conditions: at 10 µM
T3 sequence (whole entry): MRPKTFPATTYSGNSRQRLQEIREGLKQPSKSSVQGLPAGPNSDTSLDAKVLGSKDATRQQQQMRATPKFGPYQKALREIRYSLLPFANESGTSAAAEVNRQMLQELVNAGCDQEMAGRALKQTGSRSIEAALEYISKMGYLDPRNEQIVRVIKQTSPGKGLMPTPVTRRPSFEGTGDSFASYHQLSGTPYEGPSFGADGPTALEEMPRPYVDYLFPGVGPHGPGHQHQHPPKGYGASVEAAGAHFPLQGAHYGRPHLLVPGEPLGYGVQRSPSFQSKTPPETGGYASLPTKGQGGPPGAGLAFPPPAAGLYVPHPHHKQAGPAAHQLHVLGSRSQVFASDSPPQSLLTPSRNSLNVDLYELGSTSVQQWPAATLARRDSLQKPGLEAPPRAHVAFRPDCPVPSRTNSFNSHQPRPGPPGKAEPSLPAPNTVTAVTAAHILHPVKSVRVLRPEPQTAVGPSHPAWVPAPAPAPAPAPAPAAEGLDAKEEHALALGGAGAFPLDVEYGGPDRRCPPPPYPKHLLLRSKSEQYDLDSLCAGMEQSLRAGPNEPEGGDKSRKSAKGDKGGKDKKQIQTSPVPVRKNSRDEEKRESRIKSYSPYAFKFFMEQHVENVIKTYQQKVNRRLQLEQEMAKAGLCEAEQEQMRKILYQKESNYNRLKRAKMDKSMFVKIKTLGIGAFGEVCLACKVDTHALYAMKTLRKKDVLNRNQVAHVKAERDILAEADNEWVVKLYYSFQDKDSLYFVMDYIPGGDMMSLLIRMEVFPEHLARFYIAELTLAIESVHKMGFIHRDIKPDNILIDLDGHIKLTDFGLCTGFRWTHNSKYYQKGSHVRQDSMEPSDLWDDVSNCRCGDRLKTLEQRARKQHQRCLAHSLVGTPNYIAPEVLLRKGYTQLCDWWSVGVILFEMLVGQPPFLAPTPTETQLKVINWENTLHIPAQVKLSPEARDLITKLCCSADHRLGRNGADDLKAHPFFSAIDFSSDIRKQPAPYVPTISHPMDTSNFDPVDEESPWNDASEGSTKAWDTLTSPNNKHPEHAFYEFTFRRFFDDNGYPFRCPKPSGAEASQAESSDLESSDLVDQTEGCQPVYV

[5] = target: T4, Histone-arginine methyltransferase CARM1 (Homo sapiens) (UniProt Q86X55); conditions: MM1.S, at 3 µM
T4 sequence (whole entry): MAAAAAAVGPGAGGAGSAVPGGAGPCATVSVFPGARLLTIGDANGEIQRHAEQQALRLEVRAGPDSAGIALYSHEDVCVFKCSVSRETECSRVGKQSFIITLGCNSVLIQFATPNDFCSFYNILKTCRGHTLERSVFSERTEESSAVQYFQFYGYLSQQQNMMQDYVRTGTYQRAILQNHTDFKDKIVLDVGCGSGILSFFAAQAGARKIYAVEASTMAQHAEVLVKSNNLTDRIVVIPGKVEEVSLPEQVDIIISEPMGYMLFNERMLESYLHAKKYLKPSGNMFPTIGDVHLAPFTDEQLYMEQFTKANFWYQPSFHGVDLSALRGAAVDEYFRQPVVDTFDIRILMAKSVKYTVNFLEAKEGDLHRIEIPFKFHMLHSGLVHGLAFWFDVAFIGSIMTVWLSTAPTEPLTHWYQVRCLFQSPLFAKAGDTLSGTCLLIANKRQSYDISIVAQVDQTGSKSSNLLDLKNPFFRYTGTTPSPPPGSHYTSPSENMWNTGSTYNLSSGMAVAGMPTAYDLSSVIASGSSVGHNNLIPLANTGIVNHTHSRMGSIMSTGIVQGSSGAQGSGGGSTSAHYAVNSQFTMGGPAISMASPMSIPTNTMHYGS

Q: Which % of control [1] does the source give for `CCC(=O)N1CCN(c2ccc(-n3c(=O)ccc4cnc5ccc(-c6cnc7ccccc7c6)cc5c43)cc2C(F)(F)F)CC1` here?
A: 28%

Q: For `Cc1cc([C@@H](C)Nc2ccccc2C(=O)O)c2nc(N3CCOCC3)cc(=O)n2c1` [AZD-6482], which % of control [2] is on record?
A: 100%

Q: `Cn1cc(-n2cnc3c(NCc4nc5cc(Cl)c(Cl)cc5[nH]4)nc(N4CCOCC4)nc32)cn1` was tested. Which % of control [3] did it give?
A: -5.86%

Q: How did the % of control [4] turn out when `COCC(=O)NC/C=C/c1ccc2ncnc(Nc3ccc(Oc4ccc(C)nc4)c(C)c3)c2c1` [CP-724714] was run?
A: 100%

Q: How did the % of growth rate [5] turn out when `CNCCN1CCC(c2cc(CN(C)C(=O)c3cccc(Oc4ccccc4)c3)ccn2)CC1` was run?
A: -31%
